Reference: US20220386606A1, “SPECIFICALLY SUBSTITUTED 3-PHENYL-5-SPIROCYCLOPENTYL-3-PYRROLIN-2-ONES AND THEIR USE AS HERBICIDES” (Bayer Aktiengesellschaft, priority 2019, published 2022)

What was measured:
ABUTH [1] = assay: Post-emergence herbicidal action against ABUTH; assay type: in vivo, Abutylon threophrasti; conditions: 80 g/ha, visual assessment about 3 weeks after treatment vs untreated controls
Summary of the method: (§1)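 Plants at the one-leaf stage receive a foliar spray of the formulated compound, with a 600 to 800 l/ha water rate and 0.2% wetting agent. Percent activity is judged by eye after roughly 3 weeks in the greenhouse.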

VIOTR = assay: Pre-emergence herbicidal action against VIOTR; assay type: in vivo, Viola tricolor; conditions: 320 g/ha
Summary of the method: (§2)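 Percent activity (0% = like control, 100% = dead) read visually after a 3-week greenhouse period. Application: aqueous WP or EC formulations sprayed onto soil covering sown seeds, water rate 600 to 800 L/ha with 0.2% wetting agent.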

SETVI [2] = assay: Pre-emergence herbicidal action against SETVI; assay type: in vivo, Setaria viridis; conditions: 320 g/ha, scored visually after 3 weeks vs untreated controls
Summary of the method: as §2

ALOMY [3] = assay: Post-emergence herbicidal action against ALOMY; assay type: in vivo, Alopecurus myosuroides; conditions: 80 g/ha, visual assessment after about 3 weeks
Summary of the method: as §1

AMARE = assay: Pre-emergence herbicidal action against AMARE; assay type: in vivo, Amaranthus retroflexus; conditions: 320 g/ha
Summary of the method: as §2

ECHCG [4] = assay: Post-emergence herbicidal action against ECHCG; assay type: in vivo, Echinochloa crus-galli; conditions: 80 g/ha, visual assessment about 3 weeks after treatment vs untreated controls
Summary of the method: as §1

POLCO = assay: Pre-emergence herbicidal action against POLCO; assay type: in vivo, Polygonum convolvulus; conditions: 320 g/ha
From the text: (§3) Seeds of monocotyledonous and dicotyledonous weed plants and crop plants are laid out in sandy loam soil in wood-fiber pots and covered with soil. The compounds of the invention, formulated in the form of wettable powders (WP) or as emulsion concentrates (EC), are then applied to the surface of the covering soil as aqueous suspension or emulsion at a water application rate equating to 600 to 800 L/ha with addition of 0.2% wetting agent.
(§4) After the treatment, the pots are placed in a greenhouse and kept under good growth conditions for the trial plants. The damage to the test plants is scored visually after a test period of 3 weeks by comparison with untreated controls (herbicidal activity in percent (%): 100% activity=the plants have died, 0% activity=like control plants).

AVEFA [5] = assay: Post-emergence herbicidal action against AVEFA; assay type: in vivo, Avena fatua; conditions: 80 g/ha, visual assessment after about 3 weeks
Summary of the method: as §1

LOLRI [6] = assay: Post-emergence herbicidal action against LOLRI; assay type: in vivo, Lolium rigidum; conditions: 80 g/ha, visual assessment about 3 weeks after treatment vs untreated controls
Summary of the method: as §1

ABUTH [7] = assay: Pre-emergence herbicidal action against ABUTH; assay type: in vivo, Abutylon threophrasti; conditions: 320 g/ha
From the text: as §3, §4

ALOMY [8] = assay: Pre-emergence herbicidal action against ALOMY; assay type: in vivo, Alopecurus myosuroides; conditions: 320 g/ha, scored visually after 3 weeks vs untreated controls
Summary of the method: as §2

DIGSA [9] = assay: Post-emergence herbicidal action against DIGSA; assay type: in vivo, Digitaria sanguinalis; conditions: 80 g/ha, visual assessment about 3 weeks after treatment vs untreated controls
Summary of the method: as §1

AVEFA [10] = assay: Pre-emergence herbicidal action against AVEFA; assay type: in vivo, Avena fatua; conditions: 320 g/ha, scored visually after 3 weeks vs untreated controls
Summary of the method: as §2

DIGSA [11] = assay: Pre-emergence herbicidal action against DIGSA; assay type: in vivo, Digitaria sanguinalis; conditions: 320 g/ha, scored visually after 3 weeks vs untreated controls
Summary of the method: as §2

LOLRI [12] = assay: Pre-emergence herbicidal action against LOLRI (Table 8, titled post-emergence at 320 g/ha); assay type: in vivo, Lolium rigidum; conditions: table stands in the pre-emergence section
Summary of the method: as §2

SETVI [13] = assay: Post-emergence herbicidal action against SETVI; assay type: in vivo, Setaria viridis; conditions: 80 g/ha, visual assessment about 3 weeks after treatment vs untreated controls
Summary of the method: as §1

ECHCG [14] = assay: Pre-emergence herbicidal action against ECHCG; assay type: in vivo, Echinochloa crus-galli; conditions: 320 g/ha, scored visually after 3 weeks vs untreated controls
Summary of the method: as §2

MATIN = assay: Pre-emergence herbicidal action against MATIN; assay type: in vivo; conditions: 320 g/ha
Summary of the method: as §2

VERPE = assay: Pre-emergence herbicidal action against VERPE; assay type: in vivo, Veronica persica; conditions: 320 g/ha
Summary of the method: as §2

Compound | Post-emergence action against ABUTH in % (ABUTH [1]) | Pre-emergence action against VIOTR in % (VIOTR) | Pre-emergence action against SETVI in % (SETVI [2]) | Post-emergence action against ALOMY in % (ALOMY [3]) | Pre-emergence action against AMARE in % (AMARE) | Post-emergence action against ECHCG in % (ECHCG [4]) | Pre-emergence action against POLCO in % (POLCO) | Post-emergence action against AVEFA in % (AVEFA [5]) | Post-emergence action against LOLRI in % (LOLRI [6]) | Pre-emergence action against ABUTH in % (ABUTH [7]) | Pre-emergence action against ALOMY in % (ALOMY [8]) | Post-emergence action against DIGSA in % (DIGSA [9]) | Pre-emergence action against AVEFA in % (AVEFA [10]) | Pre-emergence action against DIGSA in % (DIGSA [11]) | Pre-emergence herbicidal action against LOLRI in % (LOLRI [12]) | Post-emergence action against SETVI in % (SETVI [13]) | Pre-emergence action against ECHCG in % (ECHCG [14]) | Pre-emergence action against MATIN in % (MATIN) | Pre-emergence action against VERPE in % (VERPE)
CC#Cc1cc(C)c(C2=C(O)C3(CCC(COC)C3)NC2=O)c(Br)c1 (centres unmarked) [Example I-18] | 80% | 100% | 100% | 100% | 100% | 100% | 100% | 100% | 100% | 80% | 100% | 100% | 100% | 100% | 100% | 100% | 100% | – | –
CC#Cc1cc(C)c(C2=C(O)C3(CCC(COCCOC)C3)NC2=O)c(Cl)c1 (centres unmarked) [Example I-50] | – | 100% | 100% | 100% | 80% | 100% | 90% | 80% | 90% | 100% | 100% | – | 100% | 100% | 100% | 100% | 100% | 80% | –
CC#Cc1cc(Br)c(C2=C(OC(=O)OCC)C3(CCC(COC)C3)NC2=O)c(OC)c1 (centres unmarked) [Example P-08] | 80% | 90% | 100% | 100% | – | 100% | 100% | – | 100% | 80% | 100% | 100% | 100% | 100% | 100% | 100% | 100% | 80% | 90%
CC#Cc1cc(C)c(C2=C(OC(=O)OCC)C3(CCC(COCCOC)C3)NC2=O)c(Cl)c1 (centres unmarked) [Example P-75] | – | 100% | 100% | 100% | 100% | 100% | 80% | 90% | 100% | 80% | 100% | 90% | 100% | 100% | 100% | 100% | 100% | 90% | 90%
CC#Cc1cc(C)c(C2=C(OC(=O)OCC)C3(CCC(COCCC)C3)NC2=O)c(Cl)c1 (centres unmarked) [Example P-87] | 80% | 90% | 100% | 90% | – | 100% | 80% | 80% | 100% | 80% | 100% | 100% | 100% | 100% | 100% | 100% | 100% | – | 80%
CC#Cc1cc(Cl)c(C2=C(OC(=O)OCC)C3(CCC(COC)C3)NC2=O)c(OC)c1 (centres unmarked) [Example P-98] | – | 100% | 100% | 100% | 100% | 100% | – | 90% | 100% | 90% | 100% | 100% | 100% | 100% | 100% | 100% | 100% | 90% | 100%
C#CCOCC1CCC2(C1)NC(=O)C(c1c(C)cc(C#CC)cc1Cl)=C2OC(=O)OCC (centres unmarked) [Example P-100] | – | 100% | 100% | 100% | 100% | 100% | – | 80% | 100% | 80% | 100% | 90% | 90% | 100% | 100% | 100% | 100% | 90% | 90%
